# In patent US20260022143A1, “Cyclic Peptide Inhibitors of IL-23” (JANSSEN PHARMACEUTICA NV, priority 2022, published 2026):
# Starred links: 1 amine or outer side, 2 acyl side, 3 side chain; linkers in the order of their positions; H or OH if unused. Positions of bridges follow the written chain, without caps; N, C: chain ends. Non-standard residues stand in square brackets, D forms with d. Residues, ends and D or L forms follow the SMILES beside them. Groups on a side chain read outwards from the residue. *: point of attachment. X78 = N=C(N)NCCc1cn(-c2ccc(C[C@H](N[*:1])C(=O)[*:2])cc2)nn1; Me3N+(CH2)2O(CH2)2O(CH2)2CO = C[N+](C)(C)CCOCCOCCC(=O)*; Trp(7-Me) = Cc1cccc2c(C[C@H](N)C(=O)O)c[nH]c12; PEG9 = NCCOCCOCCOCCOCCOCCOCCOCCOCCOCCC(=O)O; X71 = C[N+](C)(C)CC(F)(F)C(F)(F)C(F)(F)C*; γGlu = O=C(O)[C@H](CCC(=O)[*:2])N[*:1]; 2Nal = N[C@@H](Cc1ccc2ccccc2c1)C(=O)O; AEF = NCCOc1ccc(C[C@H](N)C(=O)O)cc1; NMe3Pal = CN[C@@H](Cc1cccnc1)C(=O)O; 3Pal = N[C@@H](Cc1cccnc1)C(=O)O; Lys(Me) = CNCCCC[C@H](N)C(=O)O; NMeK = CN[C@@H](CCCCN)C(=O)O; Pen = CC(C)(S)[C@H](N)C(=O)O; Lauroyl = CCCCCCCCCCCC(=O)*; Thp = NC1(C(=O)O)CCOCC1; X3 = C[N+](C)(C)CCCCC*; AEEA = NCCOCCOCC(=O)O; Sar = CNCC(=O)O
# Biological target: T1, IL-23R (Homo sapiens, UniProt Q5VWK5)
# T1 construct: host or cells: HEK293
# T1 sequence (Q5VWK5 24-629): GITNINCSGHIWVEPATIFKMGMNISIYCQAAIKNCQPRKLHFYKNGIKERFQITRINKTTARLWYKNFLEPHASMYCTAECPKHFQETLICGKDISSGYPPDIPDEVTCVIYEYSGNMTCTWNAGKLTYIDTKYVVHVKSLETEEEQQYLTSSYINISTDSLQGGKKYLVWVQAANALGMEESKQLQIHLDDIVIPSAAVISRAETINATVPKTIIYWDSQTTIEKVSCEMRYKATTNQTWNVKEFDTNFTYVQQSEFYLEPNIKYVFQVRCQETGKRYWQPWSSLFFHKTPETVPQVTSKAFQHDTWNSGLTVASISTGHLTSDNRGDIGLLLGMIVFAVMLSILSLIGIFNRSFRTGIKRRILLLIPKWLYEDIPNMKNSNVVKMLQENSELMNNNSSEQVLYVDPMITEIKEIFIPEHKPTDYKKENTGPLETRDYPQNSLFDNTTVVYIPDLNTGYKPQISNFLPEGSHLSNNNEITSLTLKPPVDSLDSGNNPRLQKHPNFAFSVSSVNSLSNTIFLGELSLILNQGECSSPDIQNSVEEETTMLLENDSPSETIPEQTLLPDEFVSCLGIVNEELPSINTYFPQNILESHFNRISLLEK
# Test: IL23R Reporter Assay
# Type: cell-based
# Conditions: HEK293 cells containing IL-23R, IL-12RP1 and STAT-inducible firefly luciferase reporter; 10 ng/mL IL-23 (EC90); 5 h at 37° C.; read-out: IL23R Reporter Assay
row,IC50 [nM],SMILES
1,4.2,"CCCCCCCCCCCC(=O)N[C@@H](CCC(=O)NCCOCCOCC(=O)NCCOCCOCC(=O)NCCCC[C@@H](C(N)=O)N(C)C(=O)[C@H](Cc1cccnc1)NC(=O)[C@H](CC(N)=O)NC(=O)[C@H](CCCCN(C)C(C)=O)NC(=O)C1(NC(=O)[C@H](Cc2ccc3ccccc3c2)NC(=O)[C@H](Cc2ccc(OCCCCC[N+](C)(C)C)cc2)NC(=O)[C@H]2NC(=O)[C@H](CCCCNC(C)=O)NC(=O)[C@H](Cc3c[nH]c4c(C)cccc34)NC(=O)[C@H]([C@@H](C)O)NC(=O)[C@H](CC(=O)N(C)C)NC(=O)[C@@H](NC(=O)CCOCCOCC[N+](C)(C)C)C(C)(C)SSC2(C)C)CCOCC1)C(=O)O [compound 313, cPEG3aCO-Pen(3)-N(N(Me)2)-T-7MeW-K(Ac)-Pen(3)-TMAPF-2Nal-THP-K(NMeaC)-N-3Pya-NMeK(PEG2PEG2gEC12)-CONH2] ({Me3N+(CH2)2O(CH2)2O(CH2)2CO}-[Pen]D(NMe2)T[Trp(7-Me)]K(Ac)[Pen]Y(X3)[2Nal][Thp][Lys(Me)](Ac)N[3Pal][NMeK]([AEEA-AEEA-γGlu-Lauroyl])-NH2; disulfide 1-6)"
2,5.5,"CC(=O)NCCCC[C@@H]1NC(=O)[C@H](Cc2c[nH]c3c(C)cccc23)NC(=O)[C@H]([C@@H](C)O)NC(=O)[C@H](CC(N)=O)NC(=O)[C@@H](NC(C)=O)C(C)(C)SSC(C)(C)[C@@H](C(=O)N[C@@H](Cc2ccc(OCCCC[N+](C)(C)C)cc2)C(=O)N[C@@H](Cc2ccc3ccccc3c2)C(=O)NC2(C(=O)N[C@@H](CCC(=O)O)C(=O)N[C@@H](CC(N)=O)C(=O)N[C@@H](Cc3cccnc3)C(=O)N(C)CC(N)=O)CCOCC2)NC1=O [compound 550, MeCO-Pen(3)-N-T-7MeW-K(Ac)-Pen(3)-TMA4F-2Nal-THP-N-3Pya-Sar-CONH2]"
3,3.5,"CC(=O)NCCCC[C@@H]1NC(=O)[C@H](Cc2c[nH]c3c(-c4cccc(NC(C)=O)c4)cccc23)NC(=O)[C@H]([C@@H](C)O)NC(=O)[C@H](CC(N)=O)NC(=O)[C@@H](NC(=O)CCOCCOCC[N+](C)(C)C)C(C)(C)SSC(C)(C)[C@@H](C(=O)N[C@@H](Cc2ccc(OCCNC(=N)N)cc2)C(=O)N[C@@H](Cc2ccc3ccccc3c2)C(=O)NC2(C(=O)N[C@@H](CCCCN(C)C(C)=O)C(=O)N[C@@H](CC(N)=O)C(=O)N[C@@H](Cc3cncc(C)c3)C(=O)N(C)CC(N)=O)CCOCC2)NC1=O [compound 481, cPEG3aCO-Pen(3)-N-T-7(3NAcPh)W-K(Ac)-Pen(3)-AEF(G)-2Nal-THP-K(NMeAc)-N-5MePyridinAla-Sar-CONH2]"
4,87,"CCCCCCCCCCCC(=O)N[C@@H](CCC(=O)NCCOCCOCC(=O)NCCOCCOCC(=O)NCCOCCOCC(=O)NCCCC[C@H](NC(=O)C1(NC(=O)[C@H](Cc2ccc3ccccc3c2)NC(=O)[C@H](Cc2ccc(OCCCCC[N+](C)(C)C)cc2)NC(=O)[C@H]2NC(=O)[C@H](CCCCNC(C)=O)NC(=O)[C@H](Cc3c[nH]c4c(C)cccc34)NC(=O)[C@H]([C@@H](C)O)NC(=O)[C@H](CC(=O)N(C)C)NC(=O)[C@@H](NC(=O)CCOCCOCC[N+](C)(C)C)C(C)(C)SSC2(C)C)CCOCC1)C(=O)N[C@@H](CC(N)=O)C(=O)N[C@@H](Cc1cccnc1)C(=O)N(C)[C@@H](CCCCNC(=O)COCCOCCNC(=O)COCCOCCNC(=O)COCCOCCNC(=O)CC[C@H](NC(=O)CCCCCCCCCCC)C(=O)O)C(N)=O)C(=O)O [compound 373, cPEG3aCO-Pen(3)-N(N(Me)2)-T-7MeW-K(Ac)-Pen(3)-TMAPF-2Nal-THP-K(PEG2PEG2PEG2gEC12))-N-3Pya-NMeK(PEG2PEG2PEG2gEC12)-CONH2] ({Me3N+(CH2)2O(CH2)2O(CH2)2CO}-[Pen]D(NMe2)T[Trp(7-Me)]K(Ac)[Pen]Y(X3)[2Nal][Thp]K([AEEA-AEEA-AEEA-γGlu-Lauroyl])N[3Pal][NMeK]([AEEA-AEEA-AEEA-γGlu-Lauroyl])-NH2; disulfide 1-6)"
5,3.5,"CC(=O)N(C)CCCC[C@@H]1NC(=O)[C@H](Cc2c[nH]c3c(C)cccc23)NC(=O)[C@H]([C@@H](C)O)NC(=O)[C@H](CC(=O)N(C)C)NC(=O)[C@@H](NC(=O)CCOCCOCC[N+](C)(C)C)C(C)(C)SSC(C)(C)[C@@H](C(=O)N[C@@H](Cc2ccc(OCCNC(=O)CCOCCOCC[N+](C)(C)C)cc2)C(=O)N[C@@H](Cc2ccc3ccccc3c2)C(=O)NC2(C(=O)N[C@@H](CCCCN(C)C(C)=O)C(=O)N[C@@H](CC(N)=O)C(=O)N[C@@H](Cc3cccnc3)C(=O)N(C)CC(=O)N(C)C)CCOCC2)NC1=O [compound 571, cPEG3aCO-Pen(3)-N(N(Me)2)-T-7MeW-K(NMeAc)-Pen(3)-AEF(cPEG3a)-2Nal-THP-K(NMeAc)-N-3Pya-Sar-CONMe2] ({Me3N+(CH2)2O(CH2)2O(CH2)2CO}-[Pen]D(NMe2)T[Trp(7-Me)][Lys(Me)](Ac)[Pen][AEF](Me3N+(CH2)2O(CH2)2O(CH2)2CO)[2Nal][Thp][Lys(Me)](Ac)N[3Pal][Sar]-NMe2; disulfide 1-6)"
6,6.8,CC(=O)NCCCC[C@@H]1NC(=O)[C@H](Cc2c[nH]c3c(C)cccc23)NC(=O)[C@H]([C@@H](C)O)NC(=O)[C@H](CC(N)=O)NC(=O)[C@@H](NC(=O)[C@@H](CCCCNC(=O)CCOCCOCCOCCOCCOCCOCCOCCOCCOCCNC(C)=O)NC(C)=O)C(C)(C)SSC(C)(C)[C@@H](C(=O)N[C@@H](Cc2ccc(OCCN)cc2)C(=O)N[C@@H](Cc2ccc3ccccc3c2)C(=O)NC2(C(=O)N[C@@H](CCCCNC(C)=O)C(=O)N[C@@H](CC(N)=O)C(=O)N[C@@H](Cc3cccnc3)C(=O)N(C)CC(N)=O)CCOCC2)NC1=O [compound 44] (Ac-[dK]([PEG9-Ac])[Pen]NT[Trp(7-Me)]K(Ac)[Pen][AEF][2Nal][Thp]K(Ac)N[3Pal][Sar]-NH2; disulfide 2-7 (inferred))
7,1.4,"CC(=O)NCCCC[C@@H]1NC(=O)[C@H](Cc2c[nH]c3c(C)cccc23)NC(=O)[C@H]([C@@H](C)O)NC(=O)[C@H](CC(N)=O)NC(=O)[C@@H](NC(=O)CCOCCOCC[N+](C)(C)C)C(C)(C)SSC(C)(C)[C@@H](C(=O)N[C@@H](Cc2ccc(-n3cc(CCNC(=N)N)nn3)cc2)C(=O)N[C@@H](Cc2ccc3ccccc3c2)C(=O)NC2(C(=O)N[C@@H](CCCCNC(C)=O)C(=O)N[C@@H](CC(N)=O)C(=O)N[C@@H](Cc3cccnc3)C(=O)N(C)CC(N)=O)CCOCC2)NC1=O [compound 521, cPEG3aCO-Pen(3)-N-T-7MeW-K(Ac)-Pen(3)-F(4TzlG2)-2Nal-THP-K(Ac)-N-3Pya-Sar-CONH2] ({Me3N+(CH2)2O(CH2)2O(CH2)2CO}-[Pen]NT[Trp(7-Me)]K(Ac)[Pen][X78][2Nal][Thp]K(Ac)N[3Pal][Sar]-NH2; disulfide 1-6)"
8,4.2,"CC(=O)N[C@@H]1C(=O)N[C@@H](CC(=O)N(C)C)C(=O)N[C@@H]([C@@H](C)O)C(=O)N[C@@H](Cc2c[nH]c3c(C)cccc23)C(=O)N[C@@H](COCCOCC[N+](C)(C)C)C(=O)N[C@H](C(=O)N[C@@H](Cc2ccc(OCCOCCOCC[N+](C)(C)C)cc2)C(=O)N[C@@H](Cc2ccc3ccccc3c2)C(=O)NC2(C(=O)N[C@@H](CCCCN(C)C(C)=O)C(=O)N[C@@H](CC(N)=O)C(=O)N[C@@H](Cc3cccnc3)C(=O)N(C)CC(=O)N(C)C)CCOCC2)C(C)(C)SSC1(C)C (relative stereo) [compound 267, MeCO-Pen(3)-N(N(Me)2)-T-7MeW-APEG2Ser(S*)-Pen(3)-APEG3F-2Nal-THP-K(NMeAc)-N-3Pya-Sar-CON(Me)2]"
9,940,CC(=O)NCCCC[C@@H]1NC(=O)[C@H](Cc2c[nH]c3c(C)cccc23)NC(=O)[C@H]([C@@H](C)O)NC(=O)[C@H](CC(N)=O)NC(=O)[C@@H](NC(=O)[C@@H](CCCNC(=N)N)NC(C)=O)C(C)(C)SSC(C)(C)[C@@H](C(=O)N[C@@H](Cc2ccc(OCCN)cc2)C(=O)N[C@@H](Cc2ccc3ccccc3c2)C(=O)NC2(C(=O)N[C@@H](CCC(=O)O)C(=O)N[C@@H](CC(N)=O)C(=O)N(C)[C@@H](Cc3cccnc3)C(N)=O)CCOCC2)NC1=O [compound 36] (Ac-[dR][Pen]NT[Trp(7-Me)]K(Ac)[Pen][AEF][2Nal][Thp]EN[NMe3Pal]-NH2; disulfide 2-7 (inferred))

# Same assay, conditions: IL23R Reporter Assay (micromolar), HEK293 cells containing IL-23R, IL-12RP1 and STAT-inducible firefly luciferase reporter; 10 ng/mL IL-23 (EC90); 5 h at 37° C.
row,SMILES,IC50 [nM]
1,"CC(=O)N(C)CCCC[C@@H]1NC(=O)[C@H](Cc2c[nH]c3c(C)cccc23)NC(=O)[C@H]([C@@H](C)O)NC(=O)[C@H](CC(=O)N(C)C)NC(=O)[C@@H](NC(=O)CCOCCOCC[N+](C)(C)C)C(C)(C)SSC(C)(C)[C@@H](C(=O)N[C@@H](Cc2ccc(OCC(F)(F)C(F)(F)C(F)(F)C[N+](C)(C)C)cc2)C(=O)N[C@@H](Cc2ccc3ccccc3c2)C(=O)NC2(C(=O)N[C@@H](CCCCN(C)C(C)=O)C(=O)N[C@@H](CC(N)=O)C(=O)N[C@@H](Cc3cccnc3)C(=O)N(C)CC(=O)N(C)C)CCOCC2)NC1=O [compound 338, cPEG3aCO-Pen(3)-N(N(Me)2)-T-7MeW-K(NMeAc)-Pen(3)-hFTMAPF-2Nal-THP-K(NMeAc)-N-3Pya-Sar-CON(Me)2] ({Me3N+(CH2)2O(CH2)2O(CH2)2CO}-[Pen]D(NMe2)T[Trp(7-Me)][Lys(Me)](Ac)[Pen]Y(X71)[2Nal][Thp][Lys(Me)](Ac)N[3Pal][Sar]-NMe2; disulfide 1-6)",1.6
